Measured values reported in patent US20220119354A1, “DIAMINO-SUBSTITUTED PYRIDINES AND PYRIMIDINES AS HERBICIDES” (FMC Corporation, priority 2019, published 2022).

Columns and labels:
Type in all cases: in vivo
rice (Oryza sativa) = assay: Test B flooded paddy test, rice; conditions: Flood, 250 g ai/ha, applied to paddy water, 2-leaf stage, visual evaluation after 13 to 15 d
In short: (§1)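 Plants grown to 2-leaf stage. Compounds applied directly into paddy water flooded 3 cm above soil, with that depth kept throughout. After 13–15 d in greenhouse, visual rating versus controls on a 0–100 scale (0 no effect, 100 complete control).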

kochia (Kochia scoparia) [1] = assay: Test A postemergence, kochia; conditions: 1000 g ai/ha, 0 to 100 scale
In short: (§2)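 0–100 visual control rating, ~10 d post-treatment, greenhouse. Pre = directed soil spray on seeded loam/sand; post = spray at 1–2 leaf stage. Surfactant-containing solvent formulation.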

[2] = system: ryegrass, Italian (Lolium multiflorum); assay: Test A preemergence, Italian ryegrass; conditions: 1000 g ai/ha, 0 to 100 scale
In short: as §2

[3] = system: ducksalad (Heteranthera limosa); assay: Test B flooded paddy test, ducksalad; conditions: Flood, 250 g ai/ha, applied to paddy water, 2-leaf stage, visual evaluation after 13 to 15 d
In short: as §1

[4] = system: ragweed (common ragweed, Ambrosia elatior); assay: Test A preemergence, ragweed; conditions: 1000 g ai/ha, 0 to 100 scale
In short: as §2

[5] = system: ryegrass, Italian (Lolium multiflorum); assay: Test A postemergence, Italian ryegrass; conditions: 1000 g ai/ha, 0 to 100 scale
In short: as §2

kochia (Kochia scoparia) [6] = assay: Test A preemergence, kochia; conditions: 1000 g ai/ha, 0 to 100 scale
In short: as §2

[7] = system: barnyardgrass (Echinochloa crus-galli); assay: Test A preemergence, barnyardgrass; conditions: 1000 g ai/ha, 0 to 100 scale
In short: as §2

[8] = system: foxtail, giant (Setaria faberii); assay: Test A postemergence, giant foxtail; conditions: 1000 g ai/ha, 0 to 100 scale
In short: as §2

[9] = system: foxtail, giant (Setaria faberii); assay: Test A preemergence, giant foxtail; conditions: 1000 g ai/ha, 0 to 100 scale
In short: as §2

corn (Zea mays) = assay: Test A postemergence, corn; conditions: 1000 g ai/ha, 0 to 100 scale
In short: as §2

[10] = system: barnyardgrass (Echinochloa crus-galli); assay: Test B flooded paddy test, barnyardgrass; conditions: Flood, 250 g ai/ha, applied to paddy water, 2-leaf stage, visual evaluation after 13 to 15 d
In short: as §1

[11] = system: sedge, umbrella (small-flower umbrella sedge, Cyperus difformis); assay: Test B flooded paddy test, umbrella sedge; conditions: Flood, 250 g ai/ha, applied to paddy water, 2-leaf stage, visual evaluation after 13 to 15 d
In short: as §1

[12] = system: pigweed (Amaranthus retroflexus); assay: Test A postemergence, pigweed; conditions: 1000 g ai/ha, 0 to 100 scale
In short: as §2

[13] = system: barnyardgrass (Echinochloa crus-galli); assay: Test A postemergence, barnyardgrass; conditions: 1000 g ai/ha, 0 to 100 scale, 0 no effect, 100 complete control
In short: as §2

[14] = system: pigweed (Amaranthus retroflexus); assay: Test A preemergence, pigweed; conditions: 1000 g ai/ha, 0 to 100 scale
In short: as §2

[15] = system: ragweed (common ragweed, Ambrosia elatior); assay: Test A postemergence, ragweed; conditions: 1000 g ai/ha, 0 to 100 scale
In short: as §2

[16] = system: wheat (Triticum aestivum); assay: Test A postemergence, wheat; conditions: 1000 g ai/ha, 0 to 100 scale
In short: as §2

[17] = system: blackgrass (Alopecurus myosuroides); assay: Test A postemergence, blackgrass; conditions: 1000 g ai/ha, 0 to 100 scale
In short: as §2

[18] = system: galium (catchweed bedstraw, Galium aparine); assay: Test A postemergence, galium; conditions: 1000 g ai/ha, 0 to 100 scale
In short: as §2

CC[C@@H](Nc1ncc(C(F)(F)F)c(N)n1)c1cc2ccccc2o1 [Compound 21]
Plant response rating, Rice (0 to 100 scale, 0 is no effect, 100 is complete control) (rice (Oryza sativa)): 0
Plant response rating, Kochia (kochia (Kochia scoparia) [1]): 90
Plant response rating, Ryegrass, Italian [2]: 80
Plant response rating, Ducksalad (0 to 100 scale, 0 is no effect, 100 is complete control) [3]: 60
Plant response rating, Ragweed [4]: 100
Plant response rating, Ryegrass, Italian [5]: 50
Plant response rating, Kochia (kochia (Kochia scoparia) [6]): 80
Plant response rating, Barnyardgrass [7]: 100
Plant response rating, Foxtail, Giant [8]: 70
Plant response rating, Foxtail, Giant [9]: 100
Plant response rating, Corn (corn (Zea mays)): 100
Plant response rating, Barnyardgrass (0 to 100 scale, 0 is no effect, 100 is complete control) [10]: 0
Plant response rating, Sedge, Umbrella (0 to 100 scale, 0 is no effect, 100 is complete control) [11]: 65
Plant response rating, Pigweed [12]: 100
Plant response rating, Barnyardgrass [13]: 80
Plant response rating, Pigweed [14]: 100
Plant response rating, Ragweed [15]: 80
Plant response rating, Wheat [16]: 0
Plant response rating, Blackgrass [17]: 80
Plant response rating, Galium [18]: 80

C[C@@H](Nc1ncc(C(F)(F)F)c(N)n1)c1cc2ccccc2o1 [Compound 22, N2-[(1R)-1-(2-benzofuranyl)ethyl]-5-(trifluoromethyl)-2,4-pyrimidinediamine]
plant injury at 250 g/ha (rice (Oryza sativa); Oryza sativa, 360 h, read-out: Plant response rating, Rice (0 to 100 scale, 0 is no effect, 100 is complete control)): 0%
pest or weed control at 1000 g/ha (kochia (Kochia scoparia) [1]; Bassia scoparia, post-emergence, 240 h, read-out: Plant response rating, Kochia): 80%
Plant response rating, Ryegrass, Italian [2]: 100
pest or weed control at 250 g/ha ([3]; Heteranthera limosa, 360 h, read-out: Plant response rating, Ducksalad (0 to 100 scale, 0 is no effect, 100 is complete control)): 100%
Plant response rating, Ragweed [4]: 100
pest or weed control at 1000 g/ha ([5]; Lolium multiflorum, post-emergence, 240 h, read-out: Plant response rating, Ryegrass, Italian): 100%
Plant response rating, Kochia (kochia (Kochia scoparia) [6]): 100
Plant response rating, Barnyardgrass [7]: 100
pest or weed control at 1000 g/ha ([8]; Setaria faberi, post-emergence, 240 h, read-out: Plant response rating, Foxtail, Giant): 90%
Plant response rating, Foxtail, Giant [9]: 100
Corn plant response rating (crop injury, 0 = no effect, 100 = complete kill) at 1000 g/ha (corn (Zea mays); Zea mays, post-emergence, 240 h): 100%
pest or weed control at 250 g/ha ([10]; Echinochloa crus-galli, 360 h, read-out: Plant response rating, Barnyardgrass (0 to 100 scale, 0 is no effect, 100 is complete control)): 40%
pest or weed control at 250 g/ha ([11]; Cyperus difformis, 360 h, read-out: Plant response rating, Sedge, Umbrella (0 to 100 scale, 0 is no effect, 100 is complete control)): 95%
pest or weed control at 1000 g/ha ([12]; Amaranthus retroflexus, post-emergence, 240 h, read-out: Plant response rating, Pigweed): 100%
pest or weed control at 1000 g/ha ([13]; Echinochloa crus-galli, post-emergence, 240 h, read-out: Plant response rating, Barnyardgrass): 100%
Plant response rating, Pigweed [14]: 100
pest or weed control at 1000 g/ha ([15]; Ambrosia artemisiifolia, post-emergence, 240 h, read-out: Plant response rating, Ragweed): 80%
plant injury at 1000 g/ha ([16]; Triticum aestivum, post-emergence, 240 h, read-out: Plant response rating, Wheat): 40%
pest or weed control at 1000 g/ha ([17]; Alopecurus myosuroides, post-emergence, 240 h, read-out: Plant response rating, Blackgrass): 90%
pest or weed control at 1000 g/ha ([18]; Galium, post-emergence, 240 h, read-out: Plant response rating, Galium): 90%
